Test results: the NIST ThermoML archive (doi:10.1021/je020178w)
Numbers after ± are expanded uncertainties.

Key:
[1] = xn = mol fraction of the nth substance listed; conditions: 308.15 K, 101.3 kPa, Liquid; for viscosity: Capillary tube (Ostwald / Ubbelohde) method
[2] = 308.15 K, 101.3 kPa, Liquid; for viscosity: Capillary tube (Ostwald / Ubbelohde) method

OCCOCCO [diethylene glycol] + CNC(C)=O
[1], x2 = 0
Conditions	mass density [kg/m3]	viscosity [mPa·s]
–	1105.6 ± 1.5	17.59 ± 0.27

CNC(C)=O [N-methylacetamide] + OCCO
[1]
Conditions	mass density [kg/m3]
x1 = 0.0847	1089.5 ± 1.5
x1 = 0.212	1068.3 ± 1.5
x1 = 0.3298	1049.4 ± 1.5
x1 = 0.4247	1034.9 ± 1.4
x1 = 0.5255	1020.5 ± 1.4
x1 = 0.6275	1006.3 ± 1.4
x1 = 0.7471	990.5 ± 1.4
x1 = 0.8412	978.6 ± 1.4
x1 = 0.9347	967.3 ± 1.4
x1 = 1	958.9 ± 1.4

OCCOCCOCCO [triethylene glycol] + CNC(C)=O
[1], x2 = 0
Conditions	mass density [kg/m3]	viscosity [mPa·s]
–	1112.1 ± 1.5	23.84 ± 0.39

OCCOCCO [diethylene glycol]
[2]
Conditions	mass density [kg/m3]	viscosity [mPa·s]
–	1105.6 ± 1.5	17.59 ± 0.27

CNC(C)=O [N-methylacetamide]
[2]
Conditions	mass density [kg/m3]	viscosity [mPa·s]
–	958.9 ± 7.1	3.67 ± 0.05

CNC(C)=O [N-methylacetamide] + OCCOCCOCCO
[1]
Conditions	mass density [kg/m3]	viscosity [mPa·s]
x1 = 0.1142	1103.7 ± 1.5	21.93 ± 0.36
x1 = 0.2059	1095.7 ± 1.5	20.39 ± 0.33
x1 = 0.3069	1085.6 ± 1.5	18.59 ± 0.29
x1 = 0.4265	1071.8 ± 1.5	16.35 ± 0.25
x1 = 0.5415	1056.3 ± 1.5	14.01 ± 0.21
x1 = 0.6392	1041 ± 1.5	11.91 ± 0.17
x1 = 0.7266	1025.3 ± 1.5	9.98 ± 0.14
x1 = 0.8278	1004.5 ± 1.5	7.74 ± 0.11
x1 = 0.9307	979.5 ± 1.4	5.3 ± 0.07
x1 = 1	958.9 ± 1.4	3.67 ± 0.05

OCCOCCOCCO [triethylene glycol]
[2]
Conditions	mass density [kg/m3]	viscosity [mPa·s]
–	1112.1 ± 1.5	23.84 ± 0.39

CNC(C)=O [N-methylacetamide] + OCCOCCO
[1]
Conditions	mass density [kg/m3]	viscosity [mPa·s]
x1 = 0.1121	1094.4 ± 1.5	16.13 ± 0.24
x1 = 0.2394	1079.9 ± 1.5	14.47 ± 0.21
x1 = 0.3419	1067.4 ± 1.5	13.11 ± 0.19
x1 = 0.4564	1052.2 ± 1.5	11.57 ± 0.17
x1 = 0.5574	1037.8 ± 1.5	10.17 ± 0.14
x1 = 0.6538	1023.2 ± 1.5	8.8 ± 0.12
x1 = 0.7649	1005.3 ± 1.5	7.2 ± 0.1
x1 = 0.8343	993 ± 1.5	6.16 ± 0.08
x1 = 0.9252	975.2 ± 1.4	4.8 ± 0.06
x1 = 1	958.9 ± 1.4	3.67 ± 0.05

OCCO [1,2-ethanediol]
Conditions	viscosity [mPa·s]
[2]	10.59 ± 0.14
